Reference: patent publication US20090192149A1, “Imidazo Compounds” (SPEEDEL EXPERIMENTA AG, priority 2006, published 2009)
pIC50: −log10 of the molar value.

Molecular target: T1, recombinant human Cyp19 enzyme (Homo sapiens, UniProt P11511)
T1 construct: purchased Becton Dickinson Biosciences, San Jose, Calif., USA
T1 sequence (P11511 1-503): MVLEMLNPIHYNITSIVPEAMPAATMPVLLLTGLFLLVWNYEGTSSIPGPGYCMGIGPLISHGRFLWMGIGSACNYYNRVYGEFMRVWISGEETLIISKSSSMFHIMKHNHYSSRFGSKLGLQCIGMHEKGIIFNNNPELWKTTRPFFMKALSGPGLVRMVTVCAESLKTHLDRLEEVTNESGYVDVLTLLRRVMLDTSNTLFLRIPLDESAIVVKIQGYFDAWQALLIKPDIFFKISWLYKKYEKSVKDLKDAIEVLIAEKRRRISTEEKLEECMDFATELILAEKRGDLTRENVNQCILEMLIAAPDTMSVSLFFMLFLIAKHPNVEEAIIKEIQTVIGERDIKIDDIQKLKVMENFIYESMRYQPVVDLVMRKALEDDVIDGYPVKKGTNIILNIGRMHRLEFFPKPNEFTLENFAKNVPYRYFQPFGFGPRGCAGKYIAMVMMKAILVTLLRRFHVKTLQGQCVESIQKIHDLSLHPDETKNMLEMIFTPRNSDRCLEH
Experiment: Cyp19/MFC high throughput inhibition kit (Becton Dickinson)
Assay type: biochemical
Conditions: recombinant human Cyp19 supersomes, MFC substrate
Procedure: A compound of formula (I) is to be understood as a compound having a specific configuration around the designated asymmetric carbon atom labelled “*”. If a synthesis method is used which leads to racemic compounds, the racemate resolution is carried out in accordance with conventional methods, such as via a chiral HPLC column. […] The aforementioned activity can, readily and as described below, be determined by using a commercial Cyp19 enzyme inhibition kit, preferably the Cyp19/methoxy-4-trifluoromethyl-coumarin (MFC) high throughput inhibition kit (Becton Dickinson Biosciences, San Jose, Calif., USA) as described hereafter. In the above-mentioned inhibition kit, compounds of the formula (I) show an inhibiting activity which is at least 10 times higher, but preferably 20 times higher, or more preferably 40 times higher, than the substances of the formula (I) with the opposite configuration around the asymmetric carbon atom labelled “*”. A higher inhibiting activity corresponds to a lower IC50 value.
These effects are demonstrable in in vitro assay tests using cell-free and cellular systems. […] The Cyp19/Methoxy-4-trifluoromethyl-coumarin (MFC) high throughput inhibition kit (Becton Dickinson Biosciences, San Jose, Calif., USA), for example, is designed to screen for potential inhibitors of Cyp19 catalytic activity in a 96-well format. […]

SMILES | pIC50
N#Cc1ccc(C2COCc3cncn32)cc1 (single isomer, unassigned) [Example 1, 4-(5,6-Dihydro-8H-imidazo[5,1-c][1,4]oxazin-5-yl)benzonitrile] | 8.32
N#Cc1ccc(C2COCc3cncn32)cc1 (centres unmarked) [antipode of 1] | 5.08
